In patent publication US8183415B2, “Methods of synthesizing cinacalcet and salts thereof” (Amgen, Inc., priority 2007, dated 2012):
Where a name gives a salt, the structure may show the parent alone.

Experiments:
[1] = molecular target: T1, calcium-sensing receptor (Homo sapiens, UniProt P41180); conditions: patients with parathyroid carcinoma; cited from earlier work
T1 construct: a calcium-sensing receptor on the cell surface of the parathyroid gland; from tissue; host or cells: parathyroid gland of patients (in vivo, clinical use)
T1 sequence (P41180 20-1078): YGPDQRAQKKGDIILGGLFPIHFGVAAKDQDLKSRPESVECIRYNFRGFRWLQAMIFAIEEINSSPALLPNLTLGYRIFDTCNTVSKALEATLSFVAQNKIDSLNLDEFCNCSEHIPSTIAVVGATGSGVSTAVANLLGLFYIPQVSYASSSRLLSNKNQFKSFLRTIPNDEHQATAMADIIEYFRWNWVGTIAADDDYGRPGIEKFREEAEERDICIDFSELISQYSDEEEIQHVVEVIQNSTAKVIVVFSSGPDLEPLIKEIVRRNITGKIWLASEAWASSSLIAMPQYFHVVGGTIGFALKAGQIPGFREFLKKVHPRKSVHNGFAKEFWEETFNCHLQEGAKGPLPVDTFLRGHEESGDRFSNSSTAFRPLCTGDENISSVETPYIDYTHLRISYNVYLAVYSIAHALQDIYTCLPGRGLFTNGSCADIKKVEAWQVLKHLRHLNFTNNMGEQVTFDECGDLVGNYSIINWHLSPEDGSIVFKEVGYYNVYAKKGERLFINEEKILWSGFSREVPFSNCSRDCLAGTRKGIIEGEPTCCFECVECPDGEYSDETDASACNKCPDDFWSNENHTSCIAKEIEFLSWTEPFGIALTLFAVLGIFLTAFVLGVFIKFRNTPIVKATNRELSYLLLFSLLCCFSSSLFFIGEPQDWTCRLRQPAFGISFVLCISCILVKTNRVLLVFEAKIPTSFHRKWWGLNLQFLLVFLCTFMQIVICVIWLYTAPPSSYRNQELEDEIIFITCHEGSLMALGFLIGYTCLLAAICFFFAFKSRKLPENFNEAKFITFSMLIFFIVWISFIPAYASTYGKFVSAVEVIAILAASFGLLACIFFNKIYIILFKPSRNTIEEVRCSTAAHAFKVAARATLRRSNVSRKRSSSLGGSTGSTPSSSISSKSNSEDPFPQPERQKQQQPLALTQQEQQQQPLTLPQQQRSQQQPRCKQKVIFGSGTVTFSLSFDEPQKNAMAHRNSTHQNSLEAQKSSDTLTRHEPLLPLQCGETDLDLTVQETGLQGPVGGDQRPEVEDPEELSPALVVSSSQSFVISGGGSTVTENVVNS

[2] = molecular target: T1, calcium-sensing receptor; conditions: patients with chronic kidney disease on dialysis with secondary hyperparathyroidism; cited from earlier work

## C[C@@H](NCCCc1cccc(C(F)(F)F)c1)c1cccc2ccccc12.Cl [Form III]
Variety of solvent systems and crystallization methods, XRPD
  thermodynamic stability of crystalline form: metastable form

## C[C@@H](NCCCc1cccc(C(F)(F)F)c1)c1cccc2ccccc12 [Sensipar, N-[1-(R)-(−)-(1-naphthyl)ethyl]-3-[3-(trifluoromethyl)phenyl]-1-aminopropane hydrochloride]
[1]
  effect on calcium levels: reduce high levels of calcium
[2]
  therapeutic efficacy: therapeutically effective

## C[C@@H](NCCCc1cccc(C(F)(F)F)c1)c1cccc2ccccc12.Cl [Form II]
At room temperature
  stability of crystalline form: unstable
